Like-named read-outs stand apart in the source and are kept apart here.

Holding throughout (experiment): cells
Type in all cases: cell-based

The test system of one experiment is A2780 (Ovarian). The settings on record: after 72 hours, concentration that inhibits cell growth by 50% compared with non treated cells, read-out: IC50 (nM) ± S.E. A2780 (Ovarian). The procedure:
(§1) The activity of the compounds of formula I was evaluated on a large number of tumour cells expressing different resistance.
(§2) Cytotoxic activity was evaluated according to the procedure described by M. C.

The next experiment relates to MCF7-R (MDR+). The conditions noted are these: after 72 hours, concentration that inhibits cell growth by 50% compared with non treated cells, read-out: IC50 (nM) ± S.E. MCF7-R (MDR+). How it is done:
as §1, §2

Experiment [1] relates to A2780/pt (resistant to tocisplatin). The conditions noted are these: after 72 hours, concentration that inhibits cell growth by 50% compared with non treated cells, read-out: IC50 (nM) ± S.E. A2780/pt (resistant to tocisplatin). How it is done:
as §1, §2

The next experiment deals with MCF7 (breast). The settings on record: after 72 hours, concentration that inhibits cell growth by 50% compared with non treated cells, read-out: IC50 (nM) ± S.E. MCF7 (breast). How it is done: as §1, §2
Experiment [2] concerns A2780/top (resistant to topotecan). The conditions noted are these: after 72 hours, concentration that inhibits cell growth by 50% compared with non treated cells, read-out: IC50 (nM) ± S.E. A2780/top (resistant to topotecan). The procedure: as §1, §2
The subject of the next experiment is Widr (colon). The settings on record: after 72 hours, concentration that inhibits cell growth by 50% compared with non treated cells, read-out: IC50 (nM) ± S.E. Widr (colon). How it is done: as §1, §2
Another experiment has as its system A2780/dx (Pgp+). The settings on record: after 72 hours, concentration that inhibits cell growth by 50% compared with non treated cells, read-out: IC50 (nM) ± S.E. A2780/dx (Pgp+). The procedure:
as §1, §2

For the compound “trans-1,4-Cyclohexanedicarboxylic acid bis-(N-deacetylthiocolchicine)amide [E.g. 2]”, the IC50 in the experiment with A2780 (Ovarian) worked out at 37 ± 5 nM; in the experiment with MCF7-R (MDR+), 135 ± 11 nM; in experiment [1], 26 ± 1 nM; in the experiment with MCF7 (breast), 14 ± 0.9 nM; in experiment [2], 32 ± 24 nM; in the experiment on Widr (colon), 230 ± 166 nM.

Regarding “N-Deacetylthiocolchicine 1,4-phenylenediamine bis-urea [E.g. 4]”, the IC50 in the experiment with A2780 (Ovarian) came out at 252 ± 38 nM; in experiment [1], 331 ± 63 nM; in experiment [2] it was 152 ± 36 nM; with Widr (colon), 650 ± 40 nM.

In the case of `COc1cc2c(c(OC)c1OC)-c1ccc(SC)c(=O)cc1[C@@H](NC(=O)c1cncc(C(=O)N[C@H]3CCc4cc(OC)c(OC)c(OC)c4-c4ccc(SC)c(=O)cc43)c1)CC2` [E.g. 1, 3,5-Pyridinedicarboxylic acid bis-(N-deacetylthiocolchicine)amide], the IC50 in the experiment with A2780 (Ovarian) (Homo sapiens, A2780) was 3 ± 0.4 nM; in the experiment on MCF7-R (MDR+) (Homo sapiens, MCF7R), 72 ± 4.3 nM; in experiment [1] (Homo sapiens, A2780), 3.7 ± 0.6 nM; in the experiment with MCF7 (breast) (Homo sapiens, MCF7) it was 0.7 ± 0.1 nM; in experiment [2] (Homo sapiens, A2780), 6.9 ± 4.2 nM; with Widr (colon) (Homo sapiens, WiDr) it was 25 ± 26.4 nM. In addition, the IC50 in the experiment with A2780/dx (Pgp+) worked out at 806 ± 286 nM.

“3,5-Benzenedicarboxylic acid bis-(N-deacetylthiocolchicine)amide [E.g. 3]”: the IC50 with A2780 (Ovarian) was 8 ± 5.6 nM; with MCF7-R (MDR+), 108 ± 14 nM; in experiment [1], 23 ± 4.6 nM; with MCF7 (breast) it was 1.5 ± 0.1 nM; in experiment [2], 5.5 ± 0.1 nM; with Widr (colon), 48 ± 24 nM.

The values are drawn from patent publication US7582639B2, “N-deacetylthiocolchicine derivatives, their use and pharmaceutical formulations containing them” (priority 2004, dated 2009).
